# Experiments:
# [1] = tested on: P. aeruginosa T3SS-mediated secretion of ExoS-β-lactamase fusion protein; assay: Effector-β-lactamase (ExoS-βLA) reporter assay of T3SS-mediated secretion; type: cell-based, Pseudomonas aeruginosa; conditions: read-out: ExoS-BLA IC50; Table 1
# Source text: Effector-β-Lactamase (βLA) Reporter Assay of T3SS-Mediated Secretion with an Absorbency Signal.
# A gene encoding the exoS promoter/regulatory region and an ExoS-β-lactamase (βLA) fusion protein (comprised of the full length P. aeruginosa T3SS effector ExoS fused in reading frame to the TEM-1 β-lactamase gene lacking secretion signal codons) was constructed by splicing by overlap extension PCR (SOE-PCR) (Choi and Schweizer, 2005, BMC Microbiol., 5:30), sequence confirmed, cloned into miniCTX and introduced into P. aeruginosa strain PAO1 to generate strains MDM1746 and MDM1838 as previously described for strain MDM1710 (Bowlin et al., 2014, Antimicrob Agents Chemother., 58:2211-2220). Secretion of ExoS-β-lactamase fusion protein following EGTA addition to induce the T3SS operons was detected by measuring the hydrolysis of the chromogenic β-lactamase substrate nitrocefin in clear 96-well microplates in a modification of a previously described assay (Lee, et al., 2007, Infect. Immun., 75:1089-98). Cells of strain MDM1746, or negative control MDM1838 (which fails to carry out T3SS secretion due to ΔpscF), were sub-cultured in the morning from overnight growths in LBG into 0.1 ml of LBGE with or without test compounds and grown for 150 min. Nitrocefin (100 μg/mL final) was added, and A490 measurements taken every minute for 15 min in a Victor^3V 1420 Multilabel HTS Counter (PerkinElmer). Slopes were calculated as a relative measure of the quantity of the effector-βLA fusion protein secreted and were absolutely dependent on induction with EGTA, and the presence of a functional pscF gene in the P. aeruginosa cells. Typical signal: background ratios were 6-10.
# CYP450 2C19 = CYP450 2C19 (Homo sapiens, UniProt P33261); assay: Cytochrome P450 inhibition, CYP2C19 (Eurofins Panlabs panel); type: in vitro ADME; conditions: assayed at 10 μM
# CYP450 2C19, sequence (P33261 whole entry): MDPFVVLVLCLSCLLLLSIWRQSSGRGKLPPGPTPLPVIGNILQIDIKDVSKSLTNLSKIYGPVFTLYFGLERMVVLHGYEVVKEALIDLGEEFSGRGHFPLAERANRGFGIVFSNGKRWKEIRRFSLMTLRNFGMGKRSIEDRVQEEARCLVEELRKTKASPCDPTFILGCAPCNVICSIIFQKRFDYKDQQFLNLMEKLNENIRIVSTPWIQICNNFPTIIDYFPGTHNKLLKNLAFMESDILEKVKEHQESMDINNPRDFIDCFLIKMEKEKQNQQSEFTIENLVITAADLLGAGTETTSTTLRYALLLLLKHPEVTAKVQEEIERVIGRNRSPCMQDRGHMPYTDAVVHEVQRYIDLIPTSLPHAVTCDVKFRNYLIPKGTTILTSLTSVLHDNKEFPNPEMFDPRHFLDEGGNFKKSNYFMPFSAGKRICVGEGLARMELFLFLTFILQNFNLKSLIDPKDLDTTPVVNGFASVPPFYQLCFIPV
# Description: (§1) Cytochrome P450 Inhibition.
# (§2) Assessment of off-target effects of priority compounds. To assess potential off-target effects, we will evaluate prioritized hits validated by in vivo testing in the Eurofins Panlabs HitProfilingScreen+CYP450 assay panel, which is performed by Eurofins as a fee for service. The assay panel of consists of assays for 30 receptors and transporters plus the five major CYP450 enzymes (1A2, 2C19, 2C9, 2D6, 3A4).
# CYP450 2D6 = CYP450 2D6 (Homo sapiens, UniProt P10635); assay: Cytochrome P450 inhibition, CYP2D6 (Eurofins Panlabs panel); type: in vitro ADME; conditions: assayed at 10 μM
# CYP450 2D6, sequence (P10635 whole entry): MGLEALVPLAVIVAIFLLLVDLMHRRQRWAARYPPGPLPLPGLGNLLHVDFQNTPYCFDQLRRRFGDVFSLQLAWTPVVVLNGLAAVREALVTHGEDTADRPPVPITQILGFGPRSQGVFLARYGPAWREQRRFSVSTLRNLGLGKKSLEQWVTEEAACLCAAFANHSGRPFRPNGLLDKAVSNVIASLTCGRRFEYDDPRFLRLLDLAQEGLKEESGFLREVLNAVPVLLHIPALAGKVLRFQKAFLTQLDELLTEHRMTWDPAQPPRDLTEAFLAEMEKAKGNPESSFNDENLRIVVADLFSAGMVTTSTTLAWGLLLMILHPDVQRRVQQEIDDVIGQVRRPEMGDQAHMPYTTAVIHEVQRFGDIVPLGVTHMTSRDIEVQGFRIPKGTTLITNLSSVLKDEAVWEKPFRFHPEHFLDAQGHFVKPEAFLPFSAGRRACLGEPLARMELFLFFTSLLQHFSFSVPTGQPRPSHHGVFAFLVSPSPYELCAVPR
# Description: as §1, §2
# [2] = target: panel of human cytochrome P450s, receptors, and ion channels (Homo sapiens, UniProt P02708); conditions: assayed at 10 μM
# [3] = target: panel of human cytochrome P450s, receptors, and ion channels (Homo sapiens, UniProt P07550); conditions: assayed at 10 μM
# panel of human cytochrome P450s, receptors, and ion channels (Homo sapiens, UniProt P07550), sequence (P07550 whole entry): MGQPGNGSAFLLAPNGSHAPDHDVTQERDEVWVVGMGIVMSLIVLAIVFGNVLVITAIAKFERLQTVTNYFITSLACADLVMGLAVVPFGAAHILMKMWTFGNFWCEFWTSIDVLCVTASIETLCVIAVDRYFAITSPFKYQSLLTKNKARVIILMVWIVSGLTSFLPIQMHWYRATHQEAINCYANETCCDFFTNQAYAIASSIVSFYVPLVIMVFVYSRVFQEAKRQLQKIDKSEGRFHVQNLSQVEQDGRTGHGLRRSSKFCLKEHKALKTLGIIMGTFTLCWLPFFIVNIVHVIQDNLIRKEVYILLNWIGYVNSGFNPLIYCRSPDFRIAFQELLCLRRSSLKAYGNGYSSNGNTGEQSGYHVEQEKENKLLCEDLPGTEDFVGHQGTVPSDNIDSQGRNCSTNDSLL
# [4] = target: panel of human cytochrome P450s, receptors, and ion channels (Homo sapiens, UniProt P08172); conditions: assayed at 10 μM
# [5] = target: panel of human cytochrome P450s, receptors, and ion channels (Homo sapiens, UniProt P08588); conditions: assayed at 10 μM
# panel of human cytochrome P450s, receptors, and ion channels (Homo sapiens, UniProt P08588), sequence (P08588 whole entry): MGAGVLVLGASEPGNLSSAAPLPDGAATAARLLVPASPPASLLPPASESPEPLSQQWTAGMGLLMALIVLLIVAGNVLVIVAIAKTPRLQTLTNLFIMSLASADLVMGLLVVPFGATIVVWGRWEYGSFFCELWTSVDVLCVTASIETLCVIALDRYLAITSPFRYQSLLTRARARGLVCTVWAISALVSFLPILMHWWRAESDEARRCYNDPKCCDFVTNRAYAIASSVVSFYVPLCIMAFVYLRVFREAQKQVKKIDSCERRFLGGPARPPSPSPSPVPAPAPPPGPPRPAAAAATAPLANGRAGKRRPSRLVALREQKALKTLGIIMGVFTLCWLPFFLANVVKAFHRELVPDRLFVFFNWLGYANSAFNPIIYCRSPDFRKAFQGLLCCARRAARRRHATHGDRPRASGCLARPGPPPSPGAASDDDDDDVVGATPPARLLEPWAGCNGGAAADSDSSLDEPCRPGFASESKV
# [6] = target: panel of human cytochrome P450s, receptors, and ion channels (Homo sapiens, UniProt P08913); conditions: assayed at 10 μM
# [7] = target: panel of human cytochrome P450s, receptors, and ion channels (Homo sapiens, UniProt P14416); conditions: assayed at 10 μM
# panel of human cytochrome P450s, receptors, and ion channels (Homo sapiens, UniProt P14416), sequence (P14416 whole entry): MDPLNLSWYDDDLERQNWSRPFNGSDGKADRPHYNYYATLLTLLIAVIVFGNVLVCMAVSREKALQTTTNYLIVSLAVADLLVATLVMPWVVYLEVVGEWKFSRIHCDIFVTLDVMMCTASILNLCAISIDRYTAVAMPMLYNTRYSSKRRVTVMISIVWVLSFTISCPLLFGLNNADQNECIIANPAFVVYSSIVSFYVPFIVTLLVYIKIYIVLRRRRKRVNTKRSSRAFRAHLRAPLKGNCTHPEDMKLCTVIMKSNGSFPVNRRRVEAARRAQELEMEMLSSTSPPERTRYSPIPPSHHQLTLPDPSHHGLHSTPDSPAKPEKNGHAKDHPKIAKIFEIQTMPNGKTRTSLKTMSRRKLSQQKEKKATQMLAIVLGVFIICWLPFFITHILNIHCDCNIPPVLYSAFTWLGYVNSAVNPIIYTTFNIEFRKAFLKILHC
# [8] = target: panel of human cytochrome P450s, receptors, and ion channels (Homo sapiens, UniProt P20309); conditions: assayed at 10 μM
# panel of human cytochrome P450s, receptors, and ion channels (Homo sapiens, UniProt P20309), sequence (P20309 whole entry): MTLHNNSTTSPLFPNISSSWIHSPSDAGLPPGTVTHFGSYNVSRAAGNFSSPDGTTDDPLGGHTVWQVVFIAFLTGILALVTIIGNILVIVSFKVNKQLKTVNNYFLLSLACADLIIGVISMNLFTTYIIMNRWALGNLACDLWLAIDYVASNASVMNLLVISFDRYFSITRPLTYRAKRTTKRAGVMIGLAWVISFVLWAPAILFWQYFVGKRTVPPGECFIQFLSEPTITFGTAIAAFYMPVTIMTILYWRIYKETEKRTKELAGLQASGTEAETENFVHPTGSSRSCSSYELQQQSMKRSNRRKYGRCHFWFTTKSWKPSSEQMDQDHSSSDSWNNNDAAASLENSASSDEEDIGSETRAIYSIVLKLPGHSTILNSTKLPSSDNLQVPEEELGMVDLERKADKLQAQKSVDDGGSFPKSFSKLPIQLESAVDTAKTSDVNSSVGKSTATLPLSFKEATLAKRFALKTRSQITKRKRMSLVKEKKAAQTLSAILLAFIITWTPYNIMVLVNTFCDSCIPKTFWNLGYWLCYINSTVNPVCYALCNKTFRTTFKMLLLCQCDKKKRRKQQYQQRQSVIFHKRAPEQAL
# [9] = target: panel of human cytochrome P450s, receptors, and ion channels (Homo sapiens, UniProt P21554); conditions: assayed at 10 μM
# panel of human cytochrome P450s, receptors, and ion channels (Homo sapiens, UniProt P21554), sequence (P21554 whole entry): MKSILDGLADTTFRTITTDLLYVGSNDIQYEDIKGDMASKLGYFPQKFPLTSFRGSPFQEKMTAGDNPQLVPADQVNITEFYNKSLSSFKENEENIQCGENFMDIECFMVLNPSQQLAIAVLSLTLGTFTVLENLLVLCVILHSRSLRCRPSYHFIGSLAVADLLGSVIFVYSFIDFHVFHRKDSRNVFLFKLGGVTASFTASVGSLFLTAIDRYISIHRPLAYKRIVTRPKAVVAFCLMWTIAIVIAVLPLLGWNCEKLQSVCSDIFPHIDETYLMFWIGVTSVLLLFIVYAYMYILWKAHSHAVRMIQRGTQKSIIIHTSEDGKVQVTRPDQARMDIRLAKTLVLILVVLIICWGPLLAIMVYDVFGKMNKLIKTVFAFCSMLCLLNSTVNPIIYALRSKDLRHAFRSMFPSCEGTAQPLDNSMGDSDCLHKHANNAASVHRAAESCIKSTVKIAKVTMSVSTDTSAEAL
# [10] = target: panel of human cytochrome P450s, receptors, and ion channels (Homo sapiens, UniProt P21728); conditions: assayed at 10 μM
# [11] = target: panel of human cytochrome P450s, receptors, and ion channels (Homo sapiens, UniProt P23975); conditions: assayed at 10 μM
# [12] = target: panel of human cytochrome P450s, receptors, and ion channels (Homo sapiens, UniProt P29274); conditions: assayed at 10 μM
# [13] = target: panel of human cytochrome P450s, receptors, and ion channels (Homo sapiens, UniProt P30542); conditions: assayed at 10 μM
# [14] = target: panel of human cytochrome P450s, receptors, and ion channels (Homo sapiens, UniProt P35367); conditions: assayed at 10 μM
# [15] = target: panel of human cytochrome P450s, receptors, and ion channels (Homo sapiens, UniProt P35372); conditions: assayed at 10 μM
# panel of human cytochrome P450s, receptors, and ion channels (Homo sapiens, UniProt P35372), sequence (P35372 whole entry): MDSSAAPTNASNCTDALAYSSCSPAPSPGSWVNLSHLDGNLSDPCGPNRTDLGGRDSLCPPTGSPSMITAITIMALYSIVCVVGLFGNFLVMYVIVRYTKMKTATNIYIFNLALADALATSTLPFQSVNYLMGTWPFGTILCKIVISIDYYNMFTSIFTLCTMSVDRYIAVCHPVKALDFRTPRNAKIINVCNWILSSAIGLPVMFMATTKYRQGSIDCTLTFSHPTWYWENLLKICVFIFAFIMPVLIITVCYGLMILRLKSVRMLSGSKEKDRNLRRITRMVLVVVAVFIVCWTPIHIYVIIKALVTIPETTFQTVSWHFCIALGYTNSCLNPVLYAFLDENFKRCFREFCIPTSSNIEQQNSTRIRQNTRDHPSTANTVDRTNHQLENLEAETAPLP
# [16] = target: panel of human cytochrome P450s, receptors, and ion channels (Homo sapiens, UniProt P35408); conditions: assayed at 10 μM
# [17] = target: panel of human cytochrome P450s, receptors, and ion channels (Homo sapiens, UniProt P41595); conditions: assayed at 10 μM
# panel of human cytochrome P450s, receptors, and ion channels (Homo sapiens, UniProt P41595), sequence (P41595 whole entry): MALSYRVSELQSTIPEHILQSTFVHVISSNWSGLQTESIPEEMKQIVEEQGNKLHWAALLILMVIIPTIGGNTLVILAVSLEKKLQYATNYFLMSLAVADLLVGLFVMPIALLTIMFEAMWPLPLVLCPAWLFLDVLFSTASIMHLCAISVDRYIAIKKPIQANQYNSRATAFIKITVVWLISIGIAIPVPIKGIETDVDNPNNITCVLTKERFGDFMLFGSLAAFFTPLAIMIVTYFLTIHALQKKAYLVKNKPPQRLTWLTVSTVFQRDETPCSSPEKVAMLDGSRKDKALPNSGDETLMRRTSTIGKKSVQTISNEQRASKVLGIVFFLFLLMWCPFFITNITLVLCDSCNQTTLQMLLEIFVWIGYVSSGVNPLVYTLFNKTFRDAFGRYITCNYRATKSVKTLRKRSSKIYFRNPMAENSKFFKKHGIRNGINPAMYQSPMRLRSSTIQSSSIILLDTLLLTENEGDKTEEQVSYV
# [18] = target: panel of human cytochrome P450s, receptors, and ion channels (Homo sapiens, UniProt Q99720); conditions: assayed at 10 μM
# [19] = target: panel of human cytochrome P450s, receptors, and ion channels (Rattus norvegicus, UniProt P15823); conditions: assayed at 10 μM
# panel of human cytochrome P450s, receptors, and ion channels (Rattus norvegicus, UniProt P15823), sequence (P15823 whole entry): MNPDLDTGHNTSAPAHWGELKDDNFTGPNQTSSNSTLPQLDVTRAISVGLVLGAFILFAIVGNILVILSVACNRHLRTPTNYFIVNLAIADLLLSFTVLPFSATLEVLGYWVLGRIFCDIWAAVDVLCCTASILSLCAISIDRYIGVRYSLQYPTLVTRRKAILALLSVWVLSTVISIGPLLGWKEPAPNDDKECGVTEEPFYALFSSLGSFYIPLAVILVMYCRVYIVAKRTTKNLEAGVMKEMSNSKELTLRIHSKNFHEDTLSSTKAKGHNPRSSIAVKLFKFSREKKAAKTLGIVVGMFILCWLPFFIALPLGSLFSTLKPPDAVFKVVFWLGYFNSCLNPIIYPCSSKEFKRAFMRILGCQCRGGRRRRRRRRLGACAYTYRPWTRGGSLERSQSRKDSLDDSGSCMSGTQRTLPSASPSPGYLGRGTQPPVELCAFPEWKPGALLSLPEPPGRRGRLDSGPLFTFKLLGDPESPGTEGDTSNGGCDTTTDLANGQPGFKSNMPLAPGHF
# [20] = target: panel of human cytochrome P450s, receptors, and ion channels (Rattus norvegicus, UniProt P43140); conditions: assayed at 10 μM
# [21] = tested on: panel of human cytochrome P450s (1A2, 2C19, 2C9, 2D6, 3A4), receptors, transporters and ion channels; assay: in vitro
smiles,measurement,setting,value
CCC(Oc1ccc(Cl)c(Cl)c1Cl)C(=O)NCc1ccc(F)cc1 (centres unmarked) [MBX-4532],IC50,[1],1000 nM
same,"CYP450, 2C19",CYP450 2C19,80
same,"CYP450, 2D6",CYP450 2D6,0
same,"Nicotinic Acetylcholine α1, Bungarotoxin",[2],−17
same,Adrenergic β2,[3],14
same,Muscarinic M2,[4],23
same,Adrenergic β1,[5],2
same,Adrenergic α2A,[6],23
same,Dopamine D2S,[7],11
same,Muscarinic M3,[8],8
same,Cannabinoid CB1,[9],16
same,Dopamine D1,[10],0
same,"Transporter, Norepinephrine (NET)",[11],61
same,Adenosine A2A,[12],10
same,Adenosine A1,[13],15
same,Histamine H1,[14],23
same,"Opiate μ (OP3, MOP)",[15],26
same,Prostanoid EP4,[16],−6
same,Serotonin (5-Hydroxytryptamine) 5-HT2B,[17],59
same,Sigma σ1,[18],70
same,Adrenergic α1B,[19],6
same,Adrenergic α1A,[20],12
same,inhibition at 10 µM,[21],> 50%

# Source: US20260248774A1, “INHIBITORS OF BACTERIAL TYPE III SECRETION SYSTEM” (MICROBIOTIX, INC., priority 2022, published 2026)
